Each structure is given as a SMILES string.

For the test, the target named is human active recombinant p38α-6His tagged (Homo sapiens, UniProt Q16539). Briefly: P38 Alpha Enzyme Assay (AlphaScreen, biotinylated-ATF2 substrate).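 Further: 0.5 nM final p38α, reaction started with ATP and run 45 min at 37 °C, phospho-ATF2 read by antibody-based AlphaScreen, background wells quenched with EDTA before ATP.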 The following applies: p38 alpha enzyme inhibition; means of replicate determinations; 4 h pre-incubation at 37° C.; SD of assay 0.2-0.3 log units. Format: biochemical. (In general: In Alpha technology, singlet oxygen from a donor bead excites a nearby acceptor bead.)
Chain of human active recombinant p38α-6His tagged (Q16539 whole entry): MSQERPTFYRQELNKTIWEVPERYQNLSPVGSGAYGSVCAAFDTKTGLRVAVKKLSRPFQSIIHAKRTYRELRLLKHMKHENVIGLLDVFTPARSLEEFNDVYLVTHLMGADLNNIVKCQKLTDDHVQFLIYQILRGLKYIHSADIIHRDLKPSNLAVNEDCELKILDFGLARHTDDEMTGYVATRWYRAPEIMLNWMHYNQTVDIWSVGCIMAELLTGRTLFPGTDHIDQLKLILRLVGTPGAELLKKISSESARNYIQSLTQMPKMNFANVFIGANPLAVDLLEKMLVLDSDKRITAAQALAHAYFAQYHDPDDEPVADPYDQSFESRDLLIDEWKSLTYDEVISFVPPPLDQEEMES
On to `CCc1ccc(C(=O)NC2CC2)cc1-n1ccnc(NC(C)(C)c2ccccc2OCCN)c1=O` [Example 292, 3-[3-({1-[2-(2-Aminoethoxy)phenyl]-1-methylethyl}amino)-2-oxopyrazin-1(2H)-yl]-N-cyclopropyl-4-ethylbenzamide], for which the pIC50 (usually −log10 of the IC50, conventionally taken in molar units) stood at 8.4. The same measure for `Cc1ccc(C(=O)NC2CC2)cc1-n1ccnc(NC2(c3ccccc3OCCN[C@@H](CO)C(C)C)CC2)c1=O` [Example 293, N-Cyclopropyl-3-[3-({1-[2-(2-{[(1R)-1-(hydroxymethyl)-2-methylpropyl]amino}ethoxy)phenyl]cyclopropyl}amino)-2-oxopyrazin-1(2H)-yl]-4-methylbenzamide]: 9.5; for `Cc1ccc(C(=O)NC2CC2)cc1-n1ccnc(NC2(c3ccccc3OCCNC(CO)CO)CC2)c1=O` [Example 294, N-Cyclopropyl-3-[3-({1-[2-(2-{[2-hydroxy-1-(hydroxymethyl)ethyl]amino}ethoxy)phenyl]cyclopropyl}amino)-2-oxopyrazin-1(2H)-yl]-4-methylbenzamide]: 10; for `Cc1ccc(C(=O)NC2CC2)cc1-n1ccnc(NC2(c3ccccc3OCCNC3CCS(=O)(=O)C3)CC2)c1=O` (centres unmarked) [Example 295, N-Cyclopropyl-3-[3-{[1-(2-{2-[(1,1-dioxidotetrahydrothiophen-3-yl)amino]ethoxy}phenyl)cyclopropyl]amino}-2-oxopyrazin-1(2H)-yl]-4-methylbenzamide]: 9.5. The figure for `Cc1ccc(C(=O)NC2CC2)cc1-n1ccnc(NC2(c3ccccc3OCCN3CCn4ccnc4C3)CC2)c1=O` [Example 296, N-Cyclopropyl-3-{3-[(1-{2-[2-(5,6-dihydroimidazo[1,2-a]pyrazin-7(8H)-yl)ethoxy]phenyl}cyclopropyl)amino]-2-oxopyrazin-1(2H)-yl}-4-methylbenzamide] is 9.1. The same measure for `Cc1ccc(C(=O)NC2CC2)cc1-n1ccnc(NC2(c3ccccc3OCCN3CCc4c(ncn4C)C3)CC2)c1=O` [Example 297, N-Cyclopropyl-4-methyl-3-{3-[(1-{2-[2-(1-methyl-1,4,6,7-tetrahydro-5H-imidazo[4,5-c]pyridin-5-yl)ethoxy]phenyl}cyclopropyl)amino]-2-oxopyrazin-1(2H)-yl}benzamide]: 9.4; for `CCCNCCOc1ccccc1C1(Nc2nccn(-c3cc(C(=O)NC4CC4)ccc3C)c2=O)CC1` [Example 298, N-Cyclopropyl-4-methyl-3-{2-oxo-3-[(1-{2-[2-(propylamino)ethoxy]phenyl}cyclopropyl)amino]pyrazin-1(2H)-yl}benzamide]: 10.2. For the compound `Cc1ccc(C(=O)NC2CC2)cc1-n1ccnc(NC2(c3ccccc3OC[C@H](O)CNCCO)CC2)c1=O` [Example 299, N-Cyclopropyl-3-[3-({1-[2-({(2R)-2-hydroxy-3-[(2-hydroxyethyl)amino]propyl}oxy)phenyl]cyclopropyl}amino)-2-oxopyrazin-1(2H)-yl]-4-methylbenzamide], the pIC50 is 10.

`CCNC[C@@H](O)COc1ccccc1C1(Nc2nccn(-c3cc(C(=O)NC4CC4)ccc3C)c2=O)CC1` [Example 300, N-Cyclopropyl-3-[3-{[1-(2-{[(2R)-3-(ethylamino)-2-hydroxypropyl]oxy}phenyl)cyclopropyl]amino}-2-oxopyrazin-1(2H)-yl]-4-methylbenzamide]: the pIC50 came to 10.3. The same measure for `CNC[C@@H](O)COc1ccccc1C1(Nc2nccn(-c3cc(C(=O)NC4CC4)ccc3C)c2=O)CC1` [Example 301, N-Cyclopropyl-3-[3-{[1-(2-{[(2R)-2-hydroxy-3-(methylamino)propyl]oxy}phenyl)cyclopropyl]amino}-2-oxopyrazin-1(2H)-yl]-4-methylbenzamide]: 10.1; for `Cc1ccc(C(=O)NC2CC2)cc1-n1ccnc(NC2(c3ccccc3OC[C@@H](O)CNCCO)CC2)c1=O` [Example 302, N-Cyclopropyl-3-[3-({1-[2-({(2S)-2-hydroxy-3-[(2-hydroxyethyl)amino]propyl}oxy)phenyl]cyclopropyl}amino)-2-oxopyrazin-1(2H)-yl]-4-methylbenzamide]: 10.

(Values after patent US20120214822A1 (ASTRAZENECA AB, priority 2007, published 2012).)
